In patent US11440870B2, “Cannabidiolic acid esters compositions and uses thereof” (Yissum Research Development Company of the Hebrew …, priority 2017, dated 2022):

Experiments:
[1] = test system: contextually elicited conditioned gaping (anticipatory nausea) in rats; test: Anticipatory nausea: contextually elicited conditioned gaping in rats; type: in vivo, male Sprague-Dawley rats; conditions: for Contextually elicited conditioned gaping compared to VEH controls: 45 min before test
Source text: Animal procedures complied with the Canadian Council on Animal Care, and the protocols were approved by the Institutional Animal Care Committee at University of Guelph. Animal studies are reported in compliance with the ARRIVE guidelines (Kilkenny et al., 2010; McGrath and Lilley, 2015). A total of 200 näive male Sprague-Dawley rats, obtained from Charles River Laboratories (St Constant, Quebec), were used for all in vivo studies. Rats were individually housed (for acute nausea studies) or pair-housed [for anticipatory nausea and light-dark emergence studies] in home cages made of opaque white plastic (48×26×20 cm), containing bed-o-cob bedding from Harlan Laboratories, Inc. (Mississauga, Ontario), a brown paper towel, and Crinkl'Nest™ from The Andersons, Inc. (Maumee, Ohio). Additionally, in the home cage, rats were provided with a soft white paper container that was 14 cm long and 12 cm in diameter. All rats were subjected to an ambient temperature of 21° C. and a 12/12 h light-dark schedule (lights off at 07:00 h) and maintained on food (Highland Rat Chow [8640]) and water ad libitum. For the acute and anticipatory nausea studies, their body weights ranged from 263 to 329 g on the day of conditioning. For the light-dark emergence studies, their body weights ranged from 320 to 387 g on the day of test.
For in vivo experiment 2, contextually elicited conditioned gaping (a model of anticipatory nausea) was measured using a distinctive conditioning chamber made of opaque black Plexiglass (22.5×26×20 cm) with an opaque lid that sat on a table with a clear glass top. A mirror beneath the chamber at a 45° angle facilitated viewing of the ventral surface of the rat to observe orofacial responses. The conditioning chamber was in a dark room next to a 25 W light source. A video camera that was fire-wired into a computer was focused on the mirror to record each rat's orofacial reactions during the 5 min test trial. The video tapes were later scored using ‘The Observer’ software. To assess activity, an activity chamber made of white Plexiglas (60×25×25 cm) was used, illuminated by a red light found in a different room that the contextual chamber was used to create a different context from the AN chamber. The activity of each rat was captured by video camera and sent to the Ethovision software program (Noldus, Inc., NL) to measure distance (cm) travelled.
To compare the potential of HU-580 and CBDA to reduce anticipatory nausea, the contextually elicited conditioned gaping paradigm was used (e.g. Limebeer et al., 2010; Rock et al., 2014). Rats underwent four conditioning trials during which the distinctive context was paired with 127 mg·kg^−1 LiCl. On each trial, rats were injected with LiCl and then immediately placed in the conditioning chamber for 30 min. This procedure was repeated four times with a 48 h interval between conditioning trials. For the test trial, rats were randomly assigned to one of five treatment groups (n=6 per group): VEH, 0.1 μg·kg^−1 CBDA, 0.1 μg·kg^−1 HU-580, 0.01 μg·kg^−1 CBDA, […] HU-580. Pretreatments were injected 45 min before the rats were given an saline injection (20 mL·kg^−1 i.p.) and individually placed in the conditioning (contextual) chamber for 5 min, and orofacial responses were video recorded. To investigate the mechanism of action of HU-580, two additional groups of rats were administered 0.1 mg·kg^−1 WAY-VEH (n=8), 0.1 mg·kg^−1 WAY-0.1 μg·kg^−1 HU-580 (n=8). VEH or WAY100635 were administered 15 min before […] or VEH. The video tapes from the test trial were scored by an observer blind to the experimental conditions using ‘The Observer’ for the behaviors of gaping (large openings of the mouth and jaw, with lower incisors exposed). […]

[2] = test system: locomotor activity of rats; test: Locomotor activity test after the anticipatory nausea test; type: in vivo, male Sprague-Dawley rats; conditions: 0.01 or 0.1 μg·kg−1 i.p.; 15 min test; ANOVA F(6, 39)=0.9, P>0.05
Description: For in vivo experiment 2, contextually elicited conditioned gaping (a model of anticipatory nausea) was measured using a distinctive conditioning chamber made of opaque black Plexiglass (22.5×26×20 cm) with an opaque lid that sat on a table with a clear glass top. A mirror beneath the chamber at a 45° angle facilitated viewing of the ventral surface of the rat to observe orofacial responses. The conditioning chamber was in a dark room next to a 25 W light source. A video camera that was fire-wired into a computer was focused on the mirror to record each rat's orofacial reactions during the 5 min test trial. The video tapes were later scored using ‘The Observer’ software. […]
To compare the potential of HU-580 and CBDA to reduce anticipatory nausea, the contextually elicited conditioned gaping paradigm was used (e.g. Limebeer et al., 2010; Rock et al., 2014). […] Pretreatments were injected 45 min before the rats were given an saline injection (20 mL·kg^−1 i.p.) and individually placed in the conditioning (contextual) chamber for 5 min, and orofacial responses were video recorded. […] The video tapes from the test trial were scored by an observer blind to the experimental conditions using ‘The Observer’ for the behaviors of gaping (large openings of the mouth and jaw, with lower incisors exposed). […]

SMILES	Contextually elicited conditioned gaping compared to VEH controls ([1]; 0.01 μg·kg−1 i.p.)	Contextually elicited conditioned gaping compared to VEH controls ([1]; 0.1 μg·kg−1 i.p., P<0.05)	Distance moved in locomotor activity test [2]	Suppressive effect on anticipatory nausea after 5-HT1A antagonist pretreatment ([1]; 0.1 μg·kg−1 HU-580 i.p., WAY100635 0.1 mg·kg−1 15 min before)	Dose as low as which contextually elicited conditioned gaping is suppressed ([1]; i.p., rats) [µg/kg]
C=C(C)[C@@H]1CCC(C)=C[C@H]1c1c(O)cc(CCCCC)c(C(=O)O)c1O [CBDA, Cannabidiolic acid]	but not CBDA, suppressed contextually elicited conditioned gaping	reduced conditioned gaping	no significant effect on distance moved		
C=C(C)[C@@H]1CCC(C)=C[C@H]1c1c(O)cc(CCCCC)c(C(=O)OC)c1O [HU-580, Cannabidiolic Acid Methyl Ester]	gaping significantly less than VEH controls	reduced conditioned gaping	no significant effect on distance moved	blocked by pretreatment with WAY100635	0.01
